Data reported in PubChem BioAssay (NCI).
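Five compound concentrations were applied to cells in 96-well plates for 48 hours; endpoints were derived by simple linear interpolation of the resulting dose-response curve. GI50 is the concentration that inhibits growth by half. TGI: total growth inhibition.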

Experiments:
Assay in all cases: NCI tumour cell line growth inhibition, 48 h
DU-145 prostate = test system: DU-145 prostate
MDA-MB-231 breast = test system: MDA-MB-231 breast
U251 CNS = test system: U251 CNS
SK-MEL-2 melanoma = test system: SK-MEL-2 melanoma
HCT-116 colon = test system: HCT-116 colon
HOP-62 NSCLC = test system: HOP-62 NSCLC
SF-539 CNS = test system: SF-539 CNS
CAKI-1 renal = test system: CAKI-1 renal
SNB-75 CNS = test system: SNB-75 CNS
HOP-92 NSCLC = test system: HOP-92 NSCLC

SMILES | GI50 (DU-145 prostate) [µM] | TGI (DU-145 prostate) [µM] | GI50 (MDA-MB-231 breast) [µM] | TGI (MDA-MB-231 breast) [µM] | GI50 (U251 CNS) [µM] | TGI (U251 CNS) [µM] | GI50 (SK-MEL-2 melanoma) [µM] | TGI (SK-MEL-2 melanoma) [µM] | GI50 (HCT-116 colon) [µM] | TGI (HCT-116 colon) [µM] | GI50 (HOP-62 NSCLC) [µM] | TGI (HOP-62 NSCLC) [µM] | GI50 (SF-539 CNS) [µM] | TGI (SF-539 CNS) [µM] | GI50 (CAKI-1 renal) [µM] | TGI (CAKI-1 renal) [µM] | GI50 (SNB-75 CNS) [µM] | TGI (SNB-75 CNS) [µM] | GI50 (HOP-92 NSCLC) [µM] | TGI (HOP-92 NSCLC) [µM]
CCOC(=O)C(Cc1ccc(OC)cc1)C(=O)OCC | 2.65 | 7.71 | 7.87 | 27.3 | 4.79 | 17.9 | 2.64 | 8.66 | 4.45 | 15.6 | 9.51 | 22.6 | 2.92 | 9.43 | 4.67 | 16.6 | 2.72 | 9.35 | 6.93 | 30.4
CS[C@@]1(C(=O)Nc2ccc3[nH]nc(-c4ccc(OC(C)C)nc4)c3c2)CCN(CC(=O)N2CC=C(c3ccc(-c4ncn(C)n4)cc3)CC2)C1 | > 100 | > 100 | 0.38 | > 100 | 1.65 | > 100 | 0.0571 | 1.11 | 0.161 | > 100 | 0.378 | > 100 | > 100 | > 100 | > 100 | > 100 | > 100 | > 100 | 0.228 | 1.66
C/C(=N\Nc1cccc(Cl)n1)c1ccccn1 | 0.692 | > 100 | 0.584 | > 100 | 0.582 | > 100 | 2.72 | > 100 | 0.401 | > 100 | 0.456 | 16.9 | 0.578 | 4.53 | 0.437 | 7.31 | 2.28 | > 56.9 | 1.32 | 21.1
COc1cc(/C=C/C(=O)c2ccc(Nc3nc(Nc4ccccc4)nc(Nc4ccc(Cl)cc4)n3)cc2)cc(OC)c1OC | > 32.5 | > 32.5 | 18.5 | > 32.5 | 4.62 | > 32.5 | > 32.5 | > 32.5 | 2.68 | > 32.5 | > 32.5 | > 32.5 | 6.84 | 16.2 | 11 | > 32.5 | 6.05 | > 32.5 | 1.91 | > 32.5
N#CC[C@H](C1CCCC1)n1cc(-c2ncnc3[nH]ccc23)cn1 | 19.3 | > 100 | 23.9 | > 100 | 32.5 | > 100 | 30.5 | 78.2 | 20.2 | > 100 | 17.2 | > 100 | 16.7 | 62.7 | 7.91 | > 100 | 3.3 | > 61.8 | 6.81 | > 100
COc1cc2c3c(c1O)C1(C=CC(=O)C=C1)CC3N(C)CC2 (configuration not stated) | – | 26 | – | 17.4 | – | 15.4 | – | 25.9 | – | 14.5 | – | 25.7 | – | 28.8 | – | 35.5 | – | 43.4 | – | 24
ClC1=C(Cl)C(Cl)=C(Cl)C1=Cc1ccc(Cl)cc1 | 0.629 | 2.07 | 0.302 | 1.08 | 0.344 | 1.23 | 2.13 | 4.35 | 0.237 | 0.638 | 0.802 | 2.3 | 0.733 | 2.18 | 0.429 | – | 1.44 | 3.26 | 1.53 | 3.84
C[C@@H](Oc1cc(-c2cnn(C3CC4(CCCNC4)C3)c2)cnc1N)c1c(Cl)ccc(F)c1Cl (some centres not stated) | 1.88 | 6.92 | 1.29 | 3.11 | 1.41 | 3.43 | 1.69 | 3.24 | 0.741 | 2.23 | 1.21 | 4.92 | 1.59 | 3.02 | 2.08 | 6.62 | 1.64 | 3.96 | 0.807 | 3.42
O=C1c2ccccc2C(=O)c2sc(Nc3ccc(Cl)c(Cl)c3)nc21 | – | 33.2 | – | 6.82 | – | 6.05 | – | 33.2 | – | 7.3 | – | 21.3 | – | 8.18 | – | 8.83 | – | 26.7 | – | 28
CC[C@H](C)[C@H](NC(=O)C12CC(NC(C)=O)(C1)C2)C(=O)N(C)[C@H](C[C@@H](OC(C)=O)c1nc(C(=O)N[C@@H](Cc2ccccc2)C[C@H](C)C(=O)OC)cs1)C(C)C | 0.136 | > 10.7 | 0.439 | > 16.7 | 0.433 | > 16.7 | 0.108 | > 16.7 | 0.101 | > 16.7 | 0.473 | > 10.4 | 0.438 | 1.15 | 11.2 | > 16.7 | 0.123 | > 16.7 | > 11.8 | > 16.7
Brc1ccc(Br)nn1 | 3.73 | 13.4 | 1.83 | 4.23 | 1.47 | 3.18 | 2.91 | 20.4 | 1.48 | 2.84 | 4.02 | 10.1 | 3.25 | 12.2 | 1.96 | 5.07 | 1.97 | 8.41 | 1.8 | 3.6
O=C(NO)c1cnc(N2CCN(S(=O)(=O)c3ccc4ccccc4c3)CC2)nc1 | 0.0445 | 2.23 | 0.199 | 5.28 | 0.0654 | 0.298 | 0.0345 | 0.214 | 0.03 | 10.1 | 0.104 | 5.49 | 0.0762 | 2.8 | 0.114 | 0.328 | 0.0265 | 10.8 | 0.0202 | 0.0857
CCN1C(=O)N(CC)C2C1NN=c1s/c(=C\c3ccccc3)c(=O)n12 (configuration not stated) | 0.308 | > 100 | 0.416 | > 100 | 0.316 | > 100 | – | > 100 | 0.0786 | > 100 | 0.377 | > 100 | 0.106 | 0.554 | 0.0717 | > 100 | 0.0487 | – | 29.7 | > 100
